Test results as given in ChEMBL document CHEMBL4808187, “Antiarrhythmic Hit to Lead Refinement in a Dish Using Patient-Derived iPSC Cardiomyocytes” (J Med Chem, 2021).
Activity calls are given as the source filed them. No cut-off for these calls is given here.

Legend:
[1] = Antiarrhythmic activity in hiPSC-CMs assessed as prolongation of action potential; design: species or system Homo sapiens, iPSC-CM
[2] = Antiarrhythmic activity in hiPSC-CMs assessed as cessation dose of cell beating; conditions: human, ipsc-cm
[3] = Antiarrhythmic activity in patient-derived hiPSC-CMs carrying LQT3 mutation assessed as fold shortening of action potential duration relative to control; type: functional, Homo sapiens, iPSC-CM; note: test concentration or dose not given here
[4] = Inhibition of potassium channel (unknown origin) expressed in CHO cells assessed as reduction in potassium current by automated patch clamp method; type: cell-based
[5] = Inhibition of sodium channel (unknown origin) expressed in HEK cells assessed as reduction in late inward sodium current by automated patch clamp method; type: cell-based; conditions: Homo sapiens, HEK293
[6] = Antiarrhythmic activity in patient-derived hiPSC-CMs carrying LQT3 mutation assessed as shortening dose of action potential; type: functional, Homo sapiens, iPSC-CM
[7] = Inhibition of sodium channel (unknown origin) expressed in HEK cells assessed as reduction in peak sodium current by automated patch clamp method; type: cell-based; conditions: Homo sapiens, HEK293
[8] = (§1) Antiarrhythmic activity in patient-derived hiPSC-CMs carrying LQT3 mutation assessed as cessation dose for cell beating; type: functional, Homo sapiens, iPSC-CM
[9] = Antiarrhythmic activity in patient-derived hiPSC-CMs carrying LQT3 mutation assessed as shortening of action potential duration; type: functional, Homo sapiens; conditions: ipsc-cm
Homo sapiens = organism: Homo sapiens; assay: Selectivity index, ratio of IC50 for potassium channel (unknown origin) expressed in CHO cells assessed as reduction in potassium current to IC50 for sodium channel (unknown origin) expressed in HEK cells assessed as reduction in late inward sodium current
[10] = Antiarrhythmic activity in hiPSC-CMs assessed as dose for induction of early after depolarizations; conditions: human, ipsc-cm
[11] = Antiarrhythmic activity in hiPSC-CMs assessed as fold prolongation of action potential relative to control; conditions: human, ipsc-cm
iPSC-CM = assay: as §1; type: functional; conditions: Homo sapiens
[12] = Homo sapiens, iPSC-CM, read-out: EC50

| SMILES | EC50 ([1]; ipsc-cm) | Activity [2] | fold change (FC) [3] | IC50 [4] | IC50 [5] | Activity [6] | IC50 [7] | Activity [8] | EC50 ([9]; read-out: EC50) | Ratio IC50 (Homo sapiens) | Activity [10] | Activity [11] | EC50 [1, 12] | EC50 [9] | Activity (iPSC-CM) |
| --- | --- | --- | --- | --- | --- | --- | --- | --- | --- | --- | --- | --- | --- | --- | --- |
| Cc1cccc(C)c1OCC(N)C(C)(C)C.Cl (stereo not given) | Not Active | Not Active | 1.182 | 27.6 µM | 11.4 µM | 2.5 µM | 91.4 µM | 22 µM | < 0.8 µM | 2.42 | 7.4 µM | – | – | – | – |
| CCCCNC(COc1cccc(C)c1C)c1ccccc1.Cl (stereo not given) | – | 133 µM | 1.423 | – | – | 133 µM | – | 200 µM | 20.2 µM | – | Not Active | Not Active | – | – | – |
| CNC(C)COc1c(C)cccc1C.Cl (stereo not given) | – | 66 µM | – | 44.1 µM | 36 µM | – | 124 µM | 133 µM | 1.5 µM | 1.2 | 22 µM | – | 7.8 µM | – | – |
| Cc1ccc(OCC(N)c2ccccc2)cc1C.Cl (stereo not given) | Not Active | 66 µM | 1.37 | – | – | 22 µM | – | 66 µM | – | – | Not Active | – | – | Not Active | – |
| CCc1ccccc1OCC(N)c1ccccc1.Cl (stereo not given) | Not Active | 66 µM | 1.979 | – | – | 7.4 µM | – | 22 µM | < 0.8 µM | – | Not Active | – | – | – | – |
| Cc1ccc(OCC(N)c2ccccc2)c(C)c1.Cl (stereo not given) | Not Active | 66 µM | 1.192 | – | – | 7.4 µM | – | 66 µM | 0.5 µM | – | Not Active | – | – | – | – |
| Cl.NC(COc1ccc2ccccc2c1)c1ccccc1 (stereo not given) | Not Active | Not Active | 1.459 | – | – | 2.5 µM | – | 133 µM | 8.7 µM | – | Not Active | – | – | – | – |
| CC(=O)NC(COc1c(C)cccc1C)c1ccccc1 (stereo not given) | – | Not Active | 1.62 | – | – | 22 µM | – | 66 µM | 0.8 µM | – | Not Active | Not Active | – | – | – |
| COCCNC(COc1cc(C(F)(F)F)cc(C(F)(F)F)c1)c1ccccc1.Cl (stereo not given) | – | Not Active | 1.636 | – | – | 66 µM | – | 66 µM | 6.59 µM | – | Not Active | Not Active | – | – | – |
| CCCc1ccccc1OCC(N)c1ccccc1.Cl (stereo not given) | Not Active | 22 µM | 1.321 | – | – | 2.5 µM | – | 22 µM | < 0.8 µM | – | Not Active | – | – | – | – |
| Cl.NC(COc1cccc2ccccc12)c1ccccc1 (stereo not given) | Not Active | Not Active | 1.316 | – | – | 66 µM | – | 66 µM | 0.82 µM | – | Not Active | – | – | – | – |
| CC(N)COc1cc(C(F)(F)F)cc(C(F)(F)F)c1.Cl (stereo not given) | Not Active | 133 µM | 1.2 | – | – | 7.4 µM | – | 66 µM | 0.9 µM | – | Not Active | – | – | – | – |
| Cl.NC(COc1ccccc1OCC(F)(F)F)c1ccccc1 (stereo not given) | Not Active | 66 µM | 1.409 | – | – | 22 µM | – | 66 µM | 0.9 µM | – | Not Active | – | – | – | – |
| CCCNC(C)COc1c(C)cccc1C.Cl (stereo not given) | – | 200 µM | 1.199 | – | – | 2.5 µM | – | 200 µM | – | – | 66 µM | – | 10.4 µM | Not Active | – |
| CC(N)COc1cccc(C(F)(F)F)c1.Cl (stereo not given) | Not Active | 200 µM | 1.661 | – | – | 133 µM | – | 200 µM | 31.3 µM | – | Not Active | – | – | – | – |
| CC(N)COc1ccccc1C(F)(F)F.Cl (stereo not given) | Not Active | Not Active | 1.375 | – | – | 133 µM | – | – | – | – | Not Active | – | – | Not Active | inactive |
| Cc1cccc(C)c1OCC(NC(=O)c1ccccc1)c1ccccc1 (stereo not given) | – | Not Active | 1.64 | – | – | 66 µM | – | – | 0.8 µM | – | Not Active | Not Active | – | – | inactive |
